Assay results published in patent publication US7071293B1, “Alpha helical peptides with broad spectrum antimicrobial activity that are insensitive to salt” (priority 1999, dated 2006).
Like-named read-outs stand apart in the source and are kept apart here. Ends that are not written are not given here.

Legend:
MRSA ATCC 33591 = settings: for MIC MRSA [NaCl] High / MIC MRSA [NaCl] Low: ATCC 33591, pH 7.4
P. aeruginosa PAO1 [1] = assay: Relative time for killing (luminescence measured at intervals); type: cell-based; settings: peptide at ten times its EC50 (SMAP29X-18D 15.7 X, SMAP29X-14A 17.4 X), 25 mM ionic strength
P. aeruginosa PAO1 [2] = settings: avg ± sem
S. aureus 930918-3 = settings: for MIC S. aureus [NaCl] High / MIC S. aureus [NaCl] Low: 930918-3, pH 7.4
E. coli ML-35p = settings: for MIC E. coli [NaCl] High: high salt underlay (10 mM sodium phosphate buffer +100 mM NaCl, pH 7.4); for MIC E. coli [NaCl] High / MIC E. coli [NaCl] Low: Table 13; for MIC E. coli [NaCl] Low: low salt underlay (10 mM sodium phosphate buffer, pH 7.4); for E. coli ML-35p MIC, 0 mM NaCl: underlay 0 mM NaCl; for E. coli ML-35p MIC, 0 mM NaCl / E. coli ML-35p MIC, 175 mM NaCl: Table 15; for E. coli ML-35p MIC, 175 mM NaCl: underlay 175 mM NaCl
P. aeruginosa MR 3007 = settings: for MIC P. aeruginosa [NaCl] High / MIC P. aeruginosa [NaCl] Low: MR 3007, pH 7.4
E. coli DH5α = settings: for EC50: DH5α; for EC50 E. coli DH5α: ionic strength 25 mM, avg ± sem
N. gonorrhoeae = assay: Two stage radial diffusion assay (MIC); type: cell-based; set-up: unit not given here; settings: done only at 100 mM NaCl; for N. gonorrhoeae F 62 (serum-sensitive): strain F 62 (serum-sensitive); for N. gonorrhoeae FA 19 (serum-resistant): strain FA 19 (serum-resistant)
L. monocytogenes EGD = assay: Two stage radial diffusion assay (MIC); type: cell-based; set-up: unit not given here; settings: underlay 0 mM NaCl
B. cepacia ATCC 25416 = assay: Two stage radial diffusion assay (MIC); type: cell-based; set-up: unit not given here; settings: underlay 0 mM NaCl

Row | Substance | MRSA ATCC 33591 MIC, 0 mM NaCl (MRSA ATCC 33591) | N. gonorrhoeae F 62 (serum-sensitive) (N. gonorrhoeae) | N. gonorrhoeae FA 19 (serum-resistant) (N. gonorrhoeae) | L. monocytogenes in underlays of low, normal and high salinity, 0 mM NaCl (L. monocytogenes EGD) | S. aureus 930918-3 MIC, 0 mM NaCl (S. aureus 930918-3) | E. coli ML-35p MIC, 0 mM NaCl (E. coli ML-35p) | P. aeruginosa MR-3007 MIC, 0 mM NaCl (P. aeruginosa MR 3007) | P. aeruginosa PA-01 MIC, 0 mM NaCl (P. aeruginosa PA-01) | B. cepacia ATCC 25416 in underlays of low, normal and high salinity, 0 mM NaCl (B. cepacia ATCC 25416) | E. coli DH-5α MIC, 0 mM NaCl (E. coli DH-5α; DH-5α) | MRSA ATCC 33591 MIC, 175 mM NaCl (MRSA ATCC 33591) | S. aureus 930918-3 MIC, 175 mM NaCl (S. aureus 930918-3) | E. coli ML-35p MIC, 175 mM NaCl (E. coli ML-35p) | P. aeruginosa MR-3007 MIC, 175 mM NaCl (P. aeruginosa MR 3007) | P. aeruginosa PA-01 MIC, 175 mM NaCl (P. aeruginosa PA-01) | E. coli DH-5α MIC, 175 mM NaCl (E. coli DH-5α; DH-5α) | other results
1 | GLRKRLRKFRNKIKEKLKKIG [CAP18-21a] | – | – | – | – | – | – | – | – | – | – | – | – | – | – | – | – | MIC MRSA [NaCl] High (MRSA ATCC 33591): >250 µg/mL; MIC MRSA [NaCl] Low (MRSA ATCC 33591): 19.4 µg/mL; Half-time of Killing (min. avg. ± sem) (P. aeruginosa PAO1 [1]): 9.2 ± 3.4 min; EC50 P. aeruginosa PAO1 (P. aeruginosa PAO1 [2]; ionic strength 25 mM): 0.58 ± 0.09 µg/mL; EC50 P. aeruginosa PAO1 (P. aeruginosa PAO1 [2]; ionic strength 175 mM): 0.54 ± 0.10 µg/mL; MIC S. aureus [NaCl] High (S. aureus 930918-3): 2.2 µg/mL; MIC S. aureus [NaCl] Low (S. aureus 930918-3): 1.8 µg/mL; MIC E. coli [NaCl] High (E. coli ML-35p): 0.4 µg/mL; MIC E. coli [NaCl] Low (E. coli ML-35p): 2.3 µg/mL; MIC P. aeruginosa [NaCl] High (P. aeruginosa MR 3007): 0.9 µg/mL; MIC P. aeruginosa [NaCl] Low (P. aeruginosa MR 3007): 0.7 µg/mL; EC50 (E. coli DH5α): 190 ± 10 nM; EC50 E. coli DH5α (E. coli DH5α): 0.48 ± 0.03 µg/mL
2 | GLRKRLRKFRNKIKEKLKKIGQKIQGLLPKLAPRTDY [CAP 18] | – | – | – | – | – | – | – | – | – | – | – | – | – | – | – | – | MIC MRSA [NaCl] High (MRSA ATCC 33591): 6.1 µg/mL; MIC MRSA [NaCl] Low (MRSA ATCC 33591): 8.2 µg/mL; Half-time of Killing (min. avg. ± sem) (P. aeruginosa PAO1 [1]): 4.0 ± 1.4 min; EC50 P. aeruginosa PAO1 (P. aeruginosa PAO1 [2]; ionic strength 25 mM): 0.98 ± 0.24 µg/mL; EC50 P. aeruginosa PAO1 (P. aeruginosa PAO1 [2]; ionic strength 175 mM): 0.50 ± 0.10 µg/mL; MIC S. aureus [NaCl] High (S. aureus 930918-3): 2.8 µg/mL; MIC S. aureus [NaCl] Low (S. aureus 930918-3): 1.8 µg/mL; MIC E. coli [NaCl] High (E. coli ML-35p): 0.4 µg/mL; MIC E. coli [NaCl] Low (E. coli ML-35p): 0.2 µg/mL; MIC P. aeruginosa [NaCl] High (P. aeruginosa MR 3007): 1.6 µg/mL; MIC P. aeruginosa [NaCl] Low (P. aeruginosa MR 3007): 0.2 µg/mL; EC50 (E. coli DH5α): 150 ± 20 nM; EC50 E. coli DH5α (E. coli DH5α): 0.69 ± 0.08 µg/mL
3 | GLRKRLRKFRNKIKEKLKKIGQKIQGLLPKLAPRTDY [Peptide 18] | 8.2 µg/mL | 0.7 | 0.6 | 0.6 | 1.8 µg/mL | 2.8 µg/mL | 2.1 µg/mL | 0.88 µg/mL | >79.1 | 0.84 µg/mL | – | – | – | – | – | – | –
4 | KNLRRIIRKIIHIIKKYG [Peptide 8] | 0.77 ± 0.04 µg/mL | 0.5 | 0.2 | 2.1 | 0.84 ± 0.14 µg/mL | 0.45 ± 0.10 µg/mL | 0.67 ± 0.12 µg/mL | 0.83 ± 0.05 µg/mL | 20.2 | 0.26 ± 0.05 µg/mL | 0.89 ± 0.05 µg/mL | 0.86 ± 0.06 µg/mL | 0.41 ± 0.06 µg/mL | 0.59 ± 0.05 µg/mL | 0.82 ± 0.05 µg/mL | 0.35 ± 0.09 µg/mL | –
5 | KNLRRIIRKIIHIIKKYGPTILRIIRIIG-NH2 [Peptide 28] | 0.32 ± 0.04 µg/mL | 0.1 | 0.1 | 0.4 | 0.55 ± 0.17 µg/mL | 0.16 ± 0.03 µg/mL | 0.34 ± 0.22 µg/mL | 0.53 ± 0.14 µg/mL | 17.0 | – | 1.57 ± 0.30 µg/mL | 1.14 ± 0.23 µg/mL | 0.58 ± 0.12 µg/mL | 0.49 ± 0.06 µg/mL | 1.17 ± 0.23 µg/mL | 0.40 ± 0.09 µg/mL | E. coli DH-5α MIC, 0 mM NaCl (E. coli DH-5α; underlay 0 mM NaCl): 0.0042 µg/mL
6 | LRKFRNKIKEKLKKIGQKIQG [Peptide 23] | 10.3 µg/mL | >79.1 | >250 | 5.5 | 16.3 µg/mL | 0.2 µg/mL | 1.5 µg/mL | – | >250 | – | – | – | – | – | – | – | –
7 | LRRIIRKIIHIIKK-NH2 [Peptide 11] | 4.42 ± 1.73 µg/mL | 0.8 | 0.9 | 0.7 | 1.38 ± 0.21 µg/mL | 0.63 ± 0.05 µg/mL | 0.92 ± 0.06 µg/mL | 0.96 ± 0.05 µg/mL | >79.1 | 0.85 ± 0.04 µg/mL | >79.1 µg/mL | 16.4 ± 5.1 µg/mL | 49.2 ± 15.2 µg/mL | 20.1 ± 6.9 µg/mL | 6.51 ± 1.02 µg/mL | 5.92 ± 1.02 µg/mL | –
8 | RKFRNKIKEKLKKIG [Peptide 24] | >250 µg/mL | >250 | >250 | 24.1 | 19.5 µg/mL | 9.7 µg/mL | 5.1 µg/mL | – | >250 | – | – | – | – | – | – | – | –
9 | RKRLRKFRNKIKEKLKKIGQKI [Peptide 21] | 8.1 µg/mL | 22.0 | >250 | 7.0 | 7.9 µg/mL | 0.2 µg/mL | 0.2 µg/mL | – | >250 | – | – | – | – | – | – | – | –
